# Measured values taken from patent US20060111333A1, “Structural, behavioral characterization, and synthesis of attractants for migratory lamprey” (priority 2004, published 2006).
# Assays:
# [1] = test system: olfactory epithelium of migratory adult sea lamprey; test: electro-olfactogram (EOG) recording of olfactory activity; assay type: in vivo; settings: odorant pulsed over the nose, FIG. 2 insets
# Excerpt: Using electro-olfactogram recording (EOG) to screen for olfactory activity. The EOG measures extracellular voltage transients believed to reflect large numbers of olfactory receptor generator potential (Sorensen et al. in: The Physiology of Fishes, 2nd ed., (ed., R. E. Evans), 375-406, (CRC Press, FL, 1998)). To accomplish EOG recording, freshly-captured migratory adult sea lamprey were anesthetized, immobilized, and their olfactory epithelium exposed following established protocols (Li et al., J. Gen. Physiol., 105, 569-589 (1995); and Li et al., Petromyzon marinus, J. Comp Physiol. A., 180, 429-438 (1997)). One electrode was placed on the head and the other positioned to find a region of maximum sensitivity to our standard, 10^−5 M L-arginine. Test odorants were then pulsed over the nose for 3-sec intervals with breaks. All stimuli were tested at least twice. Aliquots of appropriate solvents were diluted and tested as controls.
# [2] = test system: adult lamprey olfactory system; settings: with high specificity; Polkinghorne 2001, Li 1995, Li 1997; cited from earlier work
# migratory sea lampreys = test: behavioral assay in large 2-choice maze; assay type: in vivo, sea lamprey; settings: 14 trials of 4 lampreys
# Experimental: Confirming biological activity using a behavioral assay. Migratory sea lampreys were tested at night in large (9×1.8 meters (m)) 2-choice mazes supplied with natural lake and rivers waters (400 L min^−1) designed to simulate the scenario of lamprey encountering a river plume in a lake. Test odors were pumped down one side (in a way shown by dye to effect complete mixing) and appropriate controls (carriers, etc.) down the other. Trials lasted 15 min and commenced when groups of 4 sea lamprey were released from the upstream section of the maze and the time they spent in the stimulus side or its control noted. Experiments typically employed 14 trails and were evaluated by t-test after arc-sign transformation (Vrieze et al., Can. J. Fish. Aquat. Sci., 58, 2374-2385 (2001)).
Compound,EOG threshold (lowest concentration detected by EOG recording) [1],concentration at which the adult lamprey olfactory system detects the product [2],behavioral activity (attraction) in maze (migratory sea lampreys; at 10^−11 M),behavioral activity (attraction) in maze (migratory sea lampreys; at 10^−12 M),behavioral activity (attraction) in maze (migratory sea lampreys; at 10^−13 M)
"C[C@H](CCCOS(=O)(=O)[O-])[C@H]1CC[C@H]2[C@@H]3[C@H](O)C[C@H]4C[C@H](O)CC[C@]4(C)[C@H]3C[C@H](O)[C@]12C.[Na+] [compound 1, petromyzonol sulfate, reference compound]",below 10^−12 M,10^−12 Molar (M),only weak and somewhat inconsistent behavioral activity,–,–
"CC(C)[C@@H](CC[C@@H](C)[C@H]1CC[C@H]2[C@@H]3[C@H](OS(=O)(=O)[O-])C[C@H]4C[C@@H](NCCCN5CCCC5=O)CC[C@]4(C)[C@H]3CC[C@]12C)OS(=O)(=O)[O-].[Na+].[Na+] [compound 3, petromyzonamine disulfate]",10^−13 M,–,–,strongly attracted,strongly attracted
"C[C@H](CCC(=O)O)[C@H]1CC[C@H]2[C@@H]3[C@H](O)C[C@H]4C[C@H](O)CC[C@]4(C)[C@H]3C[C@H](O)[C@]12C [ACA, allocholic acid]",–,10^−11 Molar (M),–,–,–
petromyzosterol disulfate [compound 2],10^−12 M,–,consistently attractive,–,–
